≈ marks a conversion by molar mass, not a printed value. Read-outs that look alike come from different tables or passages of the source.
Legend:
[1] = tested on: Serratia marcescens No. 16-2; assay: minimum inhibitory concentration, agar plate dilution method; type: cell-based
[2] = tested on: Acinetobacter calcoaceticus No. 4; assay: as above; type: cell-based
[3] = tested on: Pseudomonas aeruginosa K-13; assay: as above; type: cell-based
[4] = tested on: Staphylococus aureus FDA 209-P JC-1; assay: as above; type: cell-based; conditions: Staphylococcus aureus, FDA209; S. aureus FDA 209-P JC-1; inoculated amount of cells 10^6 CFU/ml; Muller-Hinton agar; read-out: minimum inhibitory concentration (M.I.C.)
[5] = tested on: Pseudomonas aeruginosa K-13; assay: infection-preventive effects in mice (intraperitoneal infection, survival); type: in vivo, JCL:JCR type male mice; conditions: K13, ip, 168 h
[6] = tested on: Klebsiella pneumoniae No. 42; assay: minimum inhibitory concentration, agar plate dilution method; type: cell-based
Proteus vulgaris No. 33 = assay: as above; type: cell-based
[7] = tested on: Pseudomonas aeruginosa Y-1; assay: as above; type: cell-based
[8] = tested on: Pseudomonas aeruginosa Y-1; assay: infection-preventive effects in mice (intraperitoneal infection, survival); type: in vivo, JCL:JCR type male mice; conditions: Y1, ip, 168 h
[9] = tested on: Enterobacter cloacae Nek 39; assay: minimum inhibitory concentration, agar plate dilution method; type: cell-based
[10] = tested on: Staphyloccocus aureus Smith; assay: infection-preventive effects in mice (intraperitoneal infection, survival); type: in vivo, JCL:JCR type male mice; conditions: Staphylococcus aureus, ip, 168 h; S. aureus Smith, 7.7 × 10^7 cells/mouse i.p., no mucin; compound hypodermically 1 hour after infection; 7-day survival
Pseudomonas cepacia 23 = assay: minimum inhibitory concentration, agar plate dilution method; type: cell-based
Escherichia coli ML 4707 [11] = assay: as above; type: cell-based; conditions: ML4707, E. coli ML 4707, inoculated amount of cells 10^6 CFU/ml, Muller-Hinton agar, read-out: minimum inhibitory concentration (M.I.C.)
Escherichia coli ML 4707 [12] = assay: infection-preventive effects in mice (intraperitoneal infection, survival); type: in vivo, JCL:JCR type male mice; conditions: ML4707, ip, 168 h, E. coli ML 4707, 1.1 × 10^6 cells/mouse i.p., no mucin, compound hypodermically 1 hour after infection, 7-day survival
[13] = NO.162, S. marcescens No. 16-2, inoculated amount of cells 10^6 CFU/ml, Muller-Hinton agar, read-out: minimum inhibitory concentration (M.I.C.)
[14] = A. calcoaceticus No. 4, inoculated amount of cells 10^6 CFU/ml, Muller-Hinton agar, read-out: minimum inhibitory concentration (M.I.C.)
[15] = K13, P. aeruginosa K-13, inoculated amount of cells 10^6 CFU/ml, Muller-Hinton agar, read-out: minimum inhibitory concentration (M.I.C.)
[16] = P. aeruginosa K-13, 3.0 × 10^4 cells/mouse i.p., with mucin, compound hypodermically 1 hour after infection, 7-day survival, read-out: ED50
[17] = K. pneumoniae No. 42, inoculated amount of cells 10^6 CFU/ml, Muller-Hinton agar, read-out: minimum inhibitory concentration (M.I.C.)
[18] = P. vulgaris No. 33, inoculated amount of cells 10^6 CFU/ml, Muller-Hinton agar, read-out: minimum inhibitory concentration (M.I.C.)
[19] = Y1, P. aeruginosa Y-1, inoculated amount of cells 10^6 CFU/ml, Muller-Hinton agar, read-out: minimum inhibitory concentration (M.I.C.)
[20] = P. aeruginosa Y-1, 4.0 × 10^5 cells/mouse i.p., with mucin, compound hypodermically 1 hour after infection, 7-day survival, read-out: ED50
[21] = NEK39, E. cloacae Nek 39, inoculated amount of cells 10^6 CFU/ml, Muller-Hinton agar, read-out: minimum inhibitory concentration (M.I.C.)
[22] = Burkholderia cepacia, P. cepacia 23, inoculated amount of cells 10^6 CFU/ml, Muller-Hinton agar, read-out: minimum inhibitory concentration (M.I.C.)

With `CC(C)(O/N=C(\C(=O)N[C@@H]1C(=O)N2C(C(=O)[O-])=C(C[n+]3ccccc3)CS[C@H]12)c1csc(N)n1)C(=O)O` [CAZ, ceftazidime, reference compound] the MIC ([1]; NO.162, read-out: minimum inhibitory concentration (M.I.C.)) was 1.56 µg/mL (≈ 2.85 µM), the MIC ([2]; NO.4, read-out: minimum inhibitory concentration (M.I.C.)) was 6.25 µg/mL (≈ 11.4 µM) and the MIC ([3]; K13, read-out: minimum inhibitory concentration (M.I.C.)) was 3.13 µg/mL (≈ 5.73 µM). For the same compound, the MIC [4] was 12.5 µg/mL (≈ 22.9 µM), the ED50 [5] was 31 mg/kg and the MIC ([6]; NO.42, read-out: minimum inhibitory concentration (M.I.C.)) was 0.39 µg/mL (≈ 0.714 µM). It also gave an MIC (Proteus vulgaris No. 33; NO.33, read-out: minimum inhibitory concentration (M.I.C.)) of 0.1 µg/mL (≈ 0.183 µM), an MIC ([7]; Y1, read-out: minimum inhibitory concentration (M.I.C.)) of 1.56 µg/mL (≈ 2.85 µM) and an ED50 [8] of 16 mg/kg. It also gave an MIC ([9]; NEK39, read-out: minimum inhibitory concentration (M.I.C.)) of 1.56 µg/mL (≈ 2.85 µM), an ED50 [10] of 17 mg/kg and an MIC (Pseudomonas cepacia 23; Burkholderia cepacia, 23, read-out: minimum inhibitory concentration (M.I.C.)) of 1.56 µg/mL (≈ 2.85 µM). The MIC (Escherichia coli ML 4707 [11]) was 0.2 µg/mL (≈ 0.366 µM) and the ED50 (Escherichia coli ML 4707 [12]) was 0.73 mg/kg.

In the case of `C[n+]1ccc(SCC2=C(C(=O)[O-])N3C(=O)[C@@H](NC(=O)/C(=N\OCc4cc(=O)c(O)cn4O)c4csc(N)n4)[C@H]3SC2)c2c1CCC2` [Example 19, (6R, 7R)-7-[(Z)-2-(2-aminothiazol-4-yl)-2-(1,5-dihydroxy-4-pyridon-2-ylmethoxyimino)acetamido]-3-(2,3-cyclopenteno-1-methylpyridinium-4-ylthiomethy)-3-cephem-4-carboxylate], the MIC [1, 13] is reported as 1.56 µg/mL (≈ 2.27 µM), the MIC [2, 14] is reported as 6.25 µg/mL (≈ 9.11 µM) and the MIC [3, 15] is reported as 1.56 µg/mL (≈ 2.27 µM). For the same compound, the MIC [4] was 12.5 µg/mL (≈ 18.2 µM), the ED50 [5, 16] was 9.6 mg/kg and the MIC [6, 17] was 0.1 µg/mL (≈ 0.146 µM). The MIC (Proteus vulgaris No. 33; [18]) was 0.2 µg/mL (≈ 0.292 µM), the MIC [7, 19] was 0.78 µg/mL (≈ 1.14 µM) and the ED50 [8, 20] was 7.8 mg/kg. The MIC [9, 21] was 0.2 µg/mL (≈ 0.292 µM), the MIC (Pseudomonas cepacia 23; [22]) was 0.39 µg/mL (≈ 0.569 µM) and the MIC (Escherichia coli ML 4707 [11]) was 0.05 µg/mL (≈ 0.0729 µM). It also gave an ED50 (Escherichia coli ML 4707 [12]) of 0.077 mg/kg.

With `C[n+]1ccc(SCC2=C(C(=O)[O-])N3C(=O)[C@@H](NC(=O)/C(=N\OCc4cc(=O)c(O)cn4O)c4csc(N)n4)[C@H]3SC2)cc1` [Example 18, (6R, 7R)-7-[(Z)-2-(2-aminothiazol-4-yl)-2-(1,5-dihydroxy-4-pyridon-2-ylmethoxyimino)acetamido]-3-(1-methylpyridinium-4-ylthiomethyl)-3-cephem-4-carboxylat] the MIC [1, 13] was 0.78 µg/mL (≈ 1.21 µM), the MIC [2, 14] was 3.13 µg/mL (≈ 4.85 µM) and the MIC [3, 15] was 0.78 µg/mL (≈ 1.21 µM). It also gave an MIC [4] of 6.25 µg/mL (≈ 9.68 µM), an ED50 [5, 16] of 13 mg/kg and an MIC [6, 17] of 0.05 µg/mL (≈ 0.0774 µM). It also gave an MIC (Proteus vulgaris No. 33; [18]) of 0.1 µg/mL (≈ 0.155 µM), an MIC [7, 19] of 0.2 µg/mL (≈ 0.31 µM) and an ED50 [8, 20] of 2 mg/kg. For the same compound, the MIC [9, 21] was 0.39 µg/mL (≈ 0.604 µM), the ED50 [10] was 2.9 mg/kg and the MIC (Pseudomonas cepacia 23; [22]) was 0.2 µg/mL (≈ 0.31 µM). For the same compound, the MIC (Escherichia coli ML 4707 [11]) was ≤ 0.025 µg/mL and the ED50 (Escherichia coli ML 4707 [12]) was 0.034 mg/kg.

`Nc1nc(/C(=N/OCc2cc(=O)c(O)cn2O)C(=O)N[C@@H]2C(=O)N3C(C(=O)O)=C(CSc4nnnn4CCO)CS[C@H]23)cs1` [Example 6] showed an MIC [1, 13] of 0.39 µg/mL (≈ 0.585 µM), an MIC [2, 14] of 3.13 µg/mL (≈ 4.69 µM) and an MIC [3, 15] of 0.2 µg/mL (≈ 0.3 µM). It also gave an MIC [4] of 25 µg/mL (≈ 37.5 µM), an ED50 [5, 16] of 4.6 mg/kg and an MIC [6, 17] of 0.05 µg/mL (≈ 0.075 µM). The MIC (Proteus vulgaris No. 33; [18]) was 0.05 µg/mL (≈ 0.075 µM), the MIC [7, 19] was 0.1 µg/mL (≈ 0.15 µM) and the ED50 [8, 20] was 1.4 mg/kg. For the same compound, the MIC [9, 21] was 0.78 µg/mL (≈ 1.17 µM), the ED50 [10] was 42 mg/kg and the MIC (Pseudomonas cepacia 23; [22]) was 0.1 µg/mL (≈ 0.15 µM). The MIC (Escherichia coli ML 4707 [11]) was ≤ 0.025 µg/mL and the ED50 (Escherichia coli ML 4707 [12]) was 0.13 mg/kg.

Reference: US4822786A, “Cephalosporin compounds, and antibacterial agents” (Kaken Pharmaceutical Co., Ltd., priority 1986, dated 1989)
